Experiments:
C. jejuni strain C338 [1] = assay: microdilution susceptibility test, inhibition of growth of C. jejuni in vitro; type: cell-based, Campylobacter jejuni; settings: for % inhibition of growth: C. jejuni strain C338, phage-displayed peptide
Method: Representative affinity-selected phage peptides were tested for their ability to inhibit the growth of C. jejuni strains in vitro. Each phage clone was amplified by E. coli infection and twice purified by PEG precipitation and resuspended in TBS buffer (pH 7.5). Phage concentrations were calculated as […] using the ultraviolet (UV) absorbance measurements on a spectrophotometer (Smith & Scott, 1993). […] In brief: each of the C. jejuni strains was resuspended to an OD595 of 0.2 in Nutrient Broth and then diluted to 10^4-10^5 CFU/mL in Nutrient Broth containing Campylobacter growth supplement. […] A microaerophilic environment was provided by GasPak E2 Campy Pouches (BD Biosciences). After 24-48 h at 37° C. without shaking, the optical densities of the bacterial cultures were measured at OD595 nm in a plate reader (Victor2, Perkin Elmer).
(§1) The number of viable bacteria in the 96 well plates was determined by performing colony counts on the diluted inoculum and plating onto blood agar plates. Colony counts on blood agar plates were also used to determine the initial inoculum of bacteria used in the assay. A Gram Stain Kit was used to check the morphology of C. jejuni after incubation with the phage peptides.

C. jejuni strain C338 [2] = assay: morphology of C. jejuni after incubation with phage peptides (Gram stain); type: cell-based, Campylobacter jejuni; settings: normal morphology is spiral-shaped
Method: The morphology has changed to thread-shaped. • B. Strain C338 incubated with unselected phage library showing the normal spiral-shaped morphology • C.
as §1

| Sequence | % inhibition of growth (C. jejuni strain C338 [1]) | morphology of C. jejuni after incubation with phage-displayed peptide (C. jejuni strain C338 [2]) | also measured |
| --- | --- | --- | --- |
| FLIDSPLASIGPTSM (f88-4/15-mer peptide phage-display library) [CP3/3] | 99.3% | – | – |
| GRFLIRVTSSPLGPD (f88-4/15-mer peptide phage-display library) [CP3/1] | 96.7% | thread-shaped | inhibition of growth of C. jejuni (C. jejuni strain C338 [1]; initial bacterial inoculum 2.8×10^4 CFU/mL): 97%; inhibition of growth of C. jejuni (C. jejuni strain C338 [1]; initial bacterial inoculum 2.8×10^4 CFU/mL as printed (second value for CP3/1)): 89% |
| TCNLSDYTLPRARVL (f88-4/15-mer peptide phage-display library) [BT3/4] | 60% | – | inhibition of growth of C. jejuni in vitro (in words) (C. jejuni strain C338 [1]; bacterial concentration of 1×10^4 CFU/mL): inhibited the growth |
| TGSGLYLHQMVYLYQ (f88-4/15-mer peptide phage-display library) [CP3/2] | 92% | – | inhibition of growth of C. jejuni (C. jejuni strain C338 [1]; bacterial inoculum 1.6×10^5 CFU/mL): 87% |
| VPESIHKASLVCYRF (f88-4/15-mer peptide phage-display library) [BP3/5] | – | coccoid shaped | – |

— US20100190719A1, “PEPTIDES AS ANTIMICROBIAL AGENTS TOWARDS CAMPYLOBACTER SPP” (priority 2007, published 2010)
